Data reported in patent US20230277483A1, “COMPOSITIONS AND METHODS TO TREAT INFLAMMATION” (University of Iowa Research Foundation, priority 2022, published 2023).

Experiments:
[1] = tested on: 3T3-L1; experiment: TNF-induced inflammation in differentiated white adipocytes; type: cell-based, mouse; conditions: 10 ng/ml TNF with 0.1 uM HCA, 24 hr
Procedure: 3T3-L1 (CL-173-ATCC, PMID. 26451286) were grown in DMEM containing 10% fetal bovine serum (FBS) and 1% pen/strep. Cells were induced to differentiate 2 d after reaching confluence by supplementing growth media with 3 nM insulin (Humulin R, Lily, Humulin R U-500, 0002-8501-01), 0.25 nM dexamethasone (Sigma, D4902), 2 uM rosiglitazone (Sigma, R2408) and 0.5 mM 1-methyl-3-isobutyl-xanthine (Sigma, I5879). From day 3 until day 7, cells were maintained in growth media supplemented with 3 nM insulin after which the mature adipocytes were maintained in growth media. Cells were then incubated for 24 hr in the presence or absence of 10 ng/ml TNF (PeproTech, 315-01A) with or without 0.1 uM 6-Hydroxycaproic acid (HCA, Sigma, 515302).
To determine the effects of HCA on adipose-mediated inflammation, 3T3-L1 cells were differentiated into white adipocytes and then exposed to the pro-inflammatory cytokine tumor necrosis factor alpha (TNFa).

[2] = tested on: human monocyte-derived macrophages (MDM) using THP-1 cells; experiment: Proinflammatory cytokines after Pg-LPS challenge (qRT-PCR, ELISA); type: cell-based
Procedure: Sg metabolites modulate proinflammatory cytokines in human periodontal associated cells in vitro. Sg were cultured in a total of 40 ml DMEM for 24 hrs. After 200 μl of Sg suspension reached 0.2 at OD600 value in a 96-well plate, the Sg metabolites were collected by centrifugation at 3000 g for 10 min and then filtered through a 0.22 μm filter. No toxicity of Sg metabolites was detected using an MTT assay on primary human bone marrow mesenchymal stromal cells (BMSCs) and primary human gingival fibroblasts (HGF) (data no shown). The modulation of Sg metabolites on inflammatory cytokines was tested using human monocyte-derived macrophages (MDM) and HGF. The MDM were generated by inducing a human macrophage cell line (THP-1) using PMA at 10 ng/ml. The MDM at 2×10^6 cells/per well and HGF at 2×10^4 cells/per well were cultured in 24-well plates using DMEM with 10% FBS and 1% PS. The Sg metabolites at 1 and 5% v/v were added and incubated for 24 hrs before challenging with Pg-LPS at 100 ng/ml.
Human monocyte-derived macrophages (MDM) using THP-1 cells and HGF were cultured in a 24-well plate with DMEM and challenged with Pg-LPS at 100 ng/ml.
In addition, freshly isolated epidydimal white adipose tissues (eWAT) from mice on a HFD for 16 weeks were minced and cultured in 24-well plates and treated with HCA at 0.5 and 1.0 μM in DMEM/F-12 containing 10% cosmic calf serum (CCS) and 1% penicillin-streptomycin (basal growth media, BGM). […] These preliminary data are strong evidence that Sg metabolites have the potential to modulate host inflammatory responses and attenuate inflammation.
HCA promotes proliferation of health related bacteria and inhibits proliferation and attachment of periodontopathogenic bacteria. Promoting the growth of health-related commensal bacteria while inhibiting proliferation and attachment of pathogenic bacteria may be effective at preventing or treating periodontal inflammation. To determine if HCA has an effect on the growth properties of commensal bacteria and periodontopathogens, HCA at different concentrations was added to aerobic culture of S. mitis and S. oralis and anaerobic culture of T. denticola as described in our published manuscript (see detail in Shu et al, Journal of Periodontology, 2022). FIGS. 18A-C summarize the functions of HCA on the proliferation of specific commensal and pathogenic bacteria. […] Furthermore, the function of HCA on P. gingivalis attachment, a key parameter of adhesion and biofilm formation by periodontopathogenic bacteria, was investigated. […] Attachment measurements of P. gingivalis were performed based on our published studies (see detail in Shu et al, Journal of Periodontology, 2022). […] To test the biocompatibility and anti-inflammatory properties of HCA, human monocyte-derived macrophages (MDM) and gingival fibroblasts (HGF) were prepared as described in our previous studies. The cells were then treated with HCA from 0.1 to 50 μM. No toxicity was observed after treatment with different concentrations of HCA in either cell type using an MTT assay (FIGS. 19A and B, left column). The anti-inflammatory function of HCA on MDM and HGF after exposure to P. gingivalis lipopolysaccharide (PG-LPS) was investigated. […] HCA mitigates inflammation and affects the composition of microbiomes in vivo. Recent studies investigated whether HCA modulates periodontal inflammation using a mouse model. To induce periodontal inflammation, a total of 1 μl Pg-LPS at 10 μg/μl was directly injected twice a week into the interdental region between maxillary molars of C57BL/6J mice using a Hamilton1700 series syringe according to our previously published studies. 100 μl of HCA at 0.5 μM was administrated I.P. three time a week. […] It was also tested whether HCA affects the composition of the microbiome in vivo. For this purpose, high fat diet-induced obese (DIO) mice (The Jackson Laboratory) received I.P, administration of 100 μl of HCA at 0.2 and 0.5 μM three times a week for 3 weeks. […]

[3] = tested on: Human MDM; experiment: Anti-inflammatory miR expression after Pg-LPS challenge; type: cell-based
Procedure: FIGS. 11A-11B. Sg metabolites upregulate anti-inflammatory miRs in human macrophages and HGF. A-B: Relative transcript changes of miR-200c, 146a, and 21 in HGF (A) and human MDM (B) treated with AICAR, MA, HCA, and HPLA 24 hours after Pg-LPS challenge; performed in duplicate.
Human MDM was cultured in a 24-well plate and treated with HCA at different concentrations and Pg-LPS at 100 ng/mi for 24 hrs. […] (All data are presented as means±SEM. *: p<0.05 vs untreated, ANOVA).

[4] = tested on: Pg (ATCC 49417); experiment: Pg proliferation measured by OD600 under HCA; type: cell-based, Porphyromonas gingivalis; conditions: HCA at 0.1 and 10 μM; after 48 and 72 hrs vs untreated controls
Procedure: Pg (ATCC 49417), a key pathogen of periodontitis, was cultured at 24 well-plates with BHI medium at 90% N2, 5% H2, 5% CO2. HCA at 0.1 and 10 μM was applied.

O=C(O)CCCCCO [HCA, 6-hydroxycaproic acid]
TNF-induced IL-6 secretion [1]: significantly reduced | transcripts of IL-1β, IL-6, and IL-8 ([2]; HCA at 0.1 μM, 6 hours following PG-LPS challenge at 0.1 μg/mL): significantly downregulated | protein levels of IL-6 and IL-8 ([2]; HCA at 0.1 μM, supernatant, after 24 hrs): significantly reduced | transcripts of IL-1β, 6, and 8 ([2]; HCA at 0.1 and 1.0 μM, Pg-LPS at 100 ng/ml, after 6 hrs): significantly downregulated | proinflammatory cytokines (IL-6 transcript and IL-6 protein in supernatants) ([2]; at 0.1 μg after Pg-LPS challenge): modulate | anti-inflammatory miRs (miR-200c, 146a, and 21) ([3]; 24 hours after Pg-LPS challenge): upregulate | miR-200c expression ([3]; HCA at 10 μM, Pg-LPS at 100 ng/ml for 24 hrs): significantly upregulated | OD600 value of Pg [4]: significantly reduced
